By EC50 is commonly meant the concentration needed to bring the measured effect to its halfway point. Read a low EC50 as a more potent agent. What is called Ki is a measure of affinity in units of concentration, obtained from inhibition or displacement.

Where two headings read alike, the source gives them in different places. Positions of bridges follow the written chain, without caps; N, C: chain ends. Non-standard residues stand in square brackets, D forms with d. Residues, ends and D or L forms follow the SMILES beside them. dPhe(4-CN) = N#Cc1ccc(C[C@@H](N)C(=O)O)cc1; Orn = NCCC[C@H](N)C(=O)O

In assay [1] the target is T1, hMC4-R (Homo sapiens (Human), UniProt P32245). The assay is described as follows: High and low density hMC4-R functional assay (cAMP, HEK293-T-REx-MC4-R cells). Format: cell-based. The note with it: for Emax: NDP-α-MSH = 100%, read-out: Intrinsic Activity (%).
T1 sequence (P32245 whole entry): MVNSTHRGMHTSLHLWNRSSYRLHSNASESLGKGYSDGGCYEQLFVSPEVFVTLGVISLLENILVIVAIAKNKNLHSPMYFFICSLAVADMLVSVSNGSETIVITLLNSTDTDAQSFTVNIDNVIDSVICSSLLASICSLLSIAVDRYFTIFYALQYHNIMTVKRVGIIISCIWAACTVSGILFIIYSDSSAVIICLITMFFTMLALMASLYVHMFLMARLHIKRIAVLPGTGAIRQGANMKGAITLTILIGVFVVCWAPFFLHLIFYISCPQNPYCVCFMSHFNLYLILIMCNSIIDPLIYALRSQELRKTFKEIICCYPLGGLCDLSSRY
The target of assay [2] is MC1-R. The assay is described as follows: Competitive inhibition binding assay using [I125]-NDP-α-MSH, MC1-R. Particulars: membranes of B-16 mouse melanoma cells (endogenous MC1-R), in some instances HEK-293 hMC1-R. How it is done:
7.1 Competitive Inhibition Assay using [I^125]-NDP-α-MSH.
A competitive inhibition binding assay was performed for exemplified peptides according to the invention using membrane homogenates prepared from HEK-293 cells that express recombinant hMC4-R, hMC3-R, or hMC5-R, and from B-16 mouse melanoma cells (containing endogenous MC1-R). In some instances, HEK-293 cells that express recombinant hMC1-R were employed. Assays were performed in 96 well GF/B Millipore multiscreen filtration plates (MAFB NOB10) pre-coated with 0.5% bovine serum albumin (Fraction V). Membrane homogenates were incubated with 0.2 nM (for hMC4-R) 0.4 nM (for MC3-R and MC5-R) or 0.1 nM (for mouse B16 MC1-R or hMC1-R) [I^125]-NDP-α-MSH (Perkin Elmer) and increasing concentrations of test peptides of the present invention in buffer containing 25 mM HEPES buffer (pH 7.5) with 100 mM NaCl, 2 mM CaCl2, 2 mM MgCl2, 0.3 mM 1,10-phenanthroline, and 0.2% bovine serum albumin. After incubation for 60 minutes at 37° C., the assay mixture was filtered and the membranes washed three times with ice-cold buffer. Filters were dried and counted in a gamma counter for bound radioactivity. […] Maximal specific binding (100%) was defined as the difference in radioactivity (cpm) bound to cell membranes in the absence and presence of 1 μM NDP-α-MSH. […] Each assay was conducted in triplicate and the actual mean values are described, with results less than 0% reported as 0%. Ki values for test peptides of the present invention were determined using Graph-Pad Prism® curve-fitting software.

Assay [3] has as its target T1, hMC4-R. The assay is described as follows: Competitive inhibition binding assay using [I125]-NDP-α-MSH, hMC4-R. Particulars: membranes of HEK-293 cells expressing recombinant hMC4-R, read-out: MC4-R Ki.
The mark [4] stands for this setting: 0.1 ng/mL Doxycycline (low density hMC4-R system).
Where [5] appears, read: 10 ng/mL Doxycycline (high density hMC4-R system).

In the case of `CC(=O)N[C@@H](CCCNC(=N)N)C(=O)N[C@H]1CCC(=O)NCCC[C@@H](C(N)=O)NC(=O)[C@H](Cc2c[nH]c3ccccc23)NC(=O)[C@H](CCCNC(=N)N)NC(=O)[C@@H](Cc2ccccc2Cl)NC(=O)[C@@H]2C[C@@H](O)CN2C1=O` [Example 33, Ac-Arg-cyclo(Glu-Hyp-D-Phe(2-Cl)-Arg-Trp-Orn)-NH2], the EC50 in assay [1] (setting [4]) worked out at 1 nM; in assay [1] (setting [5]) it was 0.153 nM. Further, the figures for the Emax in assay [1] (setting [4]) and in assay [1] (setting [5]) were 41% and 98%, respectively. Besides, the figures for the Ki in assay [2] and in assay [3] were 143 nM and 1 nM, respectively.
Molecule `CC(=O)N[C@@H](CCCNC(=N)N)C(=O)N[C@H]1CCC(=O)NCCC[C@@H](C(N)=O)NC(=O)[C@H](Cc2c[nH]c3ccccc23)NC(=O)[C@H](CCCNC(=N)N)NC(=O)[C@@H](Cc2ccccc2Cl)NC(=O)[C@H](CCC(N)=O)NC1=O` [Example 34, Ac-Arg-cyclo(Glu-Gln-D-Phe(2-Cl)-Arg-Trp-Orn)-NH2] had an EC50 in assay [1] (setting [4]) of 1 nM. Further, the Emax was 79% in assay [1] (setting [4]) and 97% in assay [1] (setting [5]). Also, the Ki in assay [2] stood at 128 nM; in assay [3], 7 nM.
As to `CC(=O)N[C@@H](CCCNC(=N)N)C(=O)N[C@H]1CCC(=O)NCCC[C@@H](C(N)=O)NC(=O)[C@H](Cc2c[nH]c3ccccc23)NC(=O)[C@H](CCCNC(=N)N)NC(=O)[C@@H](Cc2cccc(Cl)c2)NC(=O)[C@H]([C@@H](C)O)NC1=O` [Example 36, Ac-Arg-cyclo(Glu-Thr-D-Phe(3-Cl)-Arg-Trp-Orn)-NH2], the Emax in assay [1] (setting [4]) came out at 8%; in assay [1] (setting [5]), 89%. In assay [1] (setting [5]), this molecule showed an EC50 of 1 nM. In addition, the results for the Ki in assay [2] and in assay [3] were 380 nM and 6 nM, respectively.
The matching figures for `CC(=O)N[C@@H](CCCNC(=N)N)C(=O)N[C@H]1CCC(=O)NCCC[C@@H](C(N)=O)NC(=O)[C@H](Cc2c[nH]c3ccccc23)NC(=O)[C@H](CCCNC(=N)N)NC(=O)[C@@H](Cc2cccc(Cl)c2)NC(=O)[C@@H]2C[C@@H](O)CN2C1=O` [Example 37, Ac-Arg-cyclo(Glu-Hyp-D-Phe(3-Cl)-Arg-Trp-Orn)-NH2]: 6%, 90%, 0.55 nM, 430 nM and 2 nM.
Regarding `CC(=O)N[C@@H](CCCNC(=N)N)C(=O)N[C@H]1CCC(=O)NCCC[C@@H](C(N)=O)NC(=O)[C@H](Cc2c[nH]c3ccccc23)NC(=O)[C@H](CCCNC(=N)N)NC(=O)[C@@H](Cc2cccc(Cl)c2)NC(=O)[C@H](CCC(N)=O)NC1=O` [Example 38, Ac-Arg-cyclo(Glu-Gln-D-Phe(3-Cl)-Arg-Trp-Orn)-NH2], the EC50 in assay [1] (setting [4]) came to 2 nM. Also, the results for the Emax in assay [1] (setting [4]) and in assay [1] (setting [5]) were 31% and 97%, respectively. Moreover, the Ki in assay [2] came to 290 nM; in assay [3], 3 nM.
As for `CC(=O)N[C@@H](CCCNC(=N)N)C(=O)N[C@H]1CCC(=O)NCCC[C@@H](C(N)=O)NC(=O)[C@H](Cc2c[nH]c3ccccc23)NC(=O)[C@H](CCCNC(=N)N)NC(=O)[C@@H](Cc2ccc(C#N)cc2)NC(=O)[C@@H]2CCCN2C1=O` [Example 39, Ac-Arg-cyclo(Glu-Pro-D-Phe(4-CN)-Arg-Trp-Orn)-NH2], the results for the Emax in assay [1] (setting [4]) and in assay [1] (setting [5]) were 4% and 79%, respectively. In assay [1] (setting [5]), this molecule came in with an EC50 of 1 nM. Also, the Ki in assay [2] was found to be 1550 nM; in assay [3], 4 nM.
Consider `CC(=O)N[C@@H](CCCNC(=N)N)C(=O)N[C@H]1CCC(=O)NCCC[C@@H](C(N)=O)NC(=O)[C@H](Cc2c[nH]c3ccccc23)NC(=O)[C@H](CCCNC(=N)N)NC(=O)[C@@H](Cc2ccc(C#N)cc2)NC(=O)[C@@H]2C[C@@H](O)CN2C1=O` [Example 40, Ac-Arg-cyclo(Glu-Hyp-D-Phe(4-CN)-Arg-Trp-Orn)-NH2], for which the results for the Emax in assay [1] (setting [4]) and in assay [1] (setting [5]) were 8% and 93%, respectively. This molecule gave an EC50 in assay [1] (setting [5]) of 0.5 nM. Also, the results for the inhibitory constant (Ki) in assay [2] and in assay [3] were 880 nM and 2 nM, respectively.
The matching figures for `CC(=O)N[C@@H](CCCNC(=N)N)C(=O)N[C@H]1CCC(=O)NCCC[C@@H](C(N)=O)NC(=O)[C@H](Cc2c[nH]c3ccccc23)NC(=O)[C@H](CCCNC(=N)N)NC(=O)[C@@H](Cc2ccc(C#N)cc2)NC(=O)[C@H](C)NC1=O` [Example 41, Ac-Arg-cyclo(Glu-Ala-D-Phe(4-CN)-Arg-Trp-Orn)-NH2] (Ac-REA[dPhe(4-CN)]RW[Orn]-NH2; lactam 2-7): 5%, 84%, 0.8 nM, 4300 nM and 3 nM.
With `CC(=O)N[C@@H](CCCNC(=N)N)C(=O)N[C@H]1CCC(=O)NCCC[C@@H](C(N)=O)NC(=O)[C@H](Cc2c[nH]c3ccccc23)NC(=O)[C@H](CCCNC(=N)N)NC(=O)[C@@H](Cc2ccc(C#N)cc2)NC(=O)[C@H]([C@@H](C)O)NC1=O` [Example 44, Ac-Arg-cyclo(Glu-Thr-D-Phe(4-CN)-Arg-Trp-Orn)-NH2], the EC50 in assay [1] (setting [4]) was found to be 11 nM. In addition, the Emax in assay [1] (setting [4]) turned out to be 22%; in assay [1] (setting [5]), 99%. Besides, the values for the Ki in assay [2] and in assay [3] were 1620 nM and 18 nM, respectively.
In the case of `CC(=O)N[C@@H](CCCNC(=N)N)C(=O)N[C@H]1CCC(=O)NCCC[C@@H](C(N)=O)NC(=O)[C@H](Cc2c[nH]c3ccccc23)NC(=O)[C@H](CCCNC(=N)N)NC(=O)[C@@H](Cc2ccc(C#N)cc2)NC(=O)[C@H](CO)NC1=O` [Example 45, Ac-Arg-cyclo(Glu-Ser-D-Phe(4-CN)-Arg-Trp-Orn)-NH2], the Emax in assay [1] (setting [4]) was 12%; in assay [1] (setting [5]) it was 87%. This molecule yielded an EC50 in assay [1] (setting [5]) of 0.45 nM. For the same molecule, the values for the Ki in assay [2] and in assay [3] were 10000 nM and 10 nM, respectively.
For the molecule `CC(=O)N[C@@H](CCCNC(=N)N)C(=O)N[C@H]1CCC(=O)NCCC[C@@H](C(N)=O)NC(=O)[C@H](Cc2c[nH]c3ccccc23)NC(=O)[C@H](CCCNC(=N)N)NC(=O)[C@@H](Cc2ccccc2Cl)NC(=O)[C@H](COCc2ccccc2)NC1=O` [Example 47, Ac-Arg-cyclo(Glu-Ser(Bzl)-D-Phe(2-Cl)-Arg-Trp-Orn)-NH2], the EC50 is 0.31 nM in assay [1] (setting [4]) and 0.373 nM in assay [1] (setting [5]). The Emax in assay [1] (setting [4]) was found to be 36%; in assay [1] (setting [5]), 100%. Further, the Ki came out at 25 nM in assay [2] and 0.3 nM in assay [3].
As to `CC(=O)N[C@@H](CCCNC(=N)N)C(=O)N[C@H]1CCC(=O)NCCC[C@@H](C(N)=O)NC(=O)[C@H](Cc2c[nH]c3ccccc23)NC(=O)[C@H](CCCNC(=N)N)NC(=O)[C@@H](Cc2ccccc2Cl)NC(=O)[C@H](Cc2cccc(C(N)=O)c2)NC1=O` [Example 48, Ac-Arg-cyclo(Glu-Phe(3-C(═O)—NH2)-D-Phe(2-Cl)-D-Phe-Arg-Trp-Orn)-NH2], the Emax was 6% in assay [1] (setting [4]) and 93% in assay [1] (setting [5]). In assay [1] (setting [5]), this molecule returned a concentration giving a half-maximal response (EC50) of 4 nM. Moreover, the figures for the Ki in assay [2] and in assay [3] were 545 nM and 15 nM, respectively.
As to `CC(=O)N[C@@H](CCCNC(=N)N)C(=O)N[C@H]1CCC(=O)NCCC[C@@H](C(=O)O)NC(=O)[C@H](Cc2c[nH]c3ccccc23)NC(=O)[C@H](CCCNC(=N)N)NC(=O)[C@@H](Cc2ccccc2Cl)NC(=O)[C@H](CCCN)NC1=O` [Example 49, Ac-Arg-cyclo(Glu-Orn-D-Phe(2-Cl)-Arg-Trp-Orn)-OH], the half-maximal effective concentration (EC50) in assay [1] (setting [4]) was found to be 2 nM; in assay [1] (setting [5]), 0.235 nM. Besides, the Emax in assay [1] (setting [4]) is 74%; in assay [1] (setting [5]), 93%. In addition, the Ki in assay [2] and in assay [3] was 8 nM each time.
In the case of `CC(=O)N[C@H](CCCNC(=N)N)C(=O)N[C@H]1CCCNC(=O)CC[C@@H](C(N)=O)NC(=O)[C@H](Cc2c[nH]c3ccccc23)NC(=O)[C@H](CCCNC(=N)N)NC(=O)[C@@H](Cc2cccc(Cl)c2)NC(=O)[C@H](Cc2c[nH]cn2)NC1=O` [Example 51, Ac-D-Arg-cyclo(Orn-His-D-Phe(3-Cl)-Arg-Trp-Glu)-NH2], the figures for the EC50 in assay [1] (setting [4]) and in assay [1] (setting [5]) were 0.64 nM and 0.4 nM, respectively. For the same molecule, the Emax amounted to 22% in assay [1] (setting [4]) and 95% in assay [1] (setting [5]). In addition, the figures for the Ki in assay [2] and in assay [3] were 3 nM and 0.6 nM, respectively.
Turning to `CC(=O)N[C@H](CCCNC(=N)N)C(=O)N[C@H]1CCCNC(=O)CC[C@@H](C(N)=O)NC(=O)[C@H](Cc2c[nH]c3ccccc23)NC(=O)[C@H](CCCNC(=N)N)NC(=O)[C@@H](Cc2ccc(C#N)cc2)NC(=O)[C@H](Cc2c[nH]cn2)NC1=O` [Example 52, Ac-D-Arg-cyclo(Orn-His-D-Phe(4-CN)-Arg-Trp-Glu)-NH2], the EC50 in assay [1] (setting [4]) amounted to 0.325 nM; in assay [1] (setting [5]), 0.2 nM. Besides, the Emax in assay [1] (setting [4]) turned out to be 31%; in assay [1] (setting [5]), 99%. For the same molecule, the inhibition constant (Ki) in assay [2] was determined as 6 nM; in assay [3], 0.6 nM.
